From ChEMBL document CHEMBL1201862, “PubChem BioAssay data set” (2004) come the findings set out here.

Some test systems named below: SNB-19; 786-0; SF-268; SNB-75; EKVX; RXF 393; RPMI-8226; IGROV-1; SF-539; Malme-3M; LOX IMVI; SK-MEL-28; HCT-116; SK-MEL-5; SN12C; HL-60; UACC-62; NCI/ADR-RES; NCI-H23.
Experiment in all cases: NCI anticancer screen, dose series, 48 h

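Five compound concentrations were applied to cells in 96-well plates for 48 hours; endpoints were derived by simple linear interpolation of the resulting dose-response curve. GI50 = concentration required for 50% inhibition of growth.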 Active and inactive are the calls of the source. Rule as the data show it: active = GI50 up to about 1.1 µM and inactive = higher.

Take `Cc1c2ccccc2c(CSC(=N)N)c2ccccc12`: the GI50 in the assay on SNB-19 is 0.228 µM (active); in the assay on 786-0, 0.143 µM (active); in the assay with SF-268, 0.0738 µM (active); in the assay on SNB-75, 0.178 µM (active); in the assay on EKVX, 0.304 µM (active); in the assay with RXF 393, 0.0715 µM (active). Also, the GI50 was 0.0841 µM (active) in the assay with RPMI-8226; 0.312 µM (active) in the assay on IGROV-1; 0.118 µM (active) in the assay with SF-539; 0.149 µM (active) in the assay with Malme-3M; 0.202 µM (active) in the assay with LOX IMVI; 0.27 µM (active) in the assay with SK-MEL-28. The GI50 was 0.189 µM (active) with HCT-116; 0.162 µM (active) with SK-MEL-5; 0.152 µM (active) in the assay with SN12C; 0.111 µM (active) in the assay with HL-60; 0.181 µM (active) in the assay on UACC-62; 0.234 µM (active) in the assay on NCI/ADR-RES. Besides, the GI50 with NCI-H23 is 0.106 µM (active).
Consider `C=CC1(c2ccc(Br)cc2)OCCCO1`, for which the GI50 in the assay on SNB-19, in the assay on 786-0, in the assay on SF-268, in the assay on SNB-75, with EKVX and with RXF 393 was > 100 µM (inactive) throughout. The GI50 in the assay with RPMI-8226, with IGROV-1, in the assay with SF-539, with Malme-3M, in the assay with LOX IMVI and in the assay on SK-MEL-28 was > 100 µM (inactive) in each case. Also, the GI50 with HCT-116, with SK-MEL-5, with SN12C, in the assay on HL-60, in the assay with UACC-62 and in the assay with NCI/ADR-RES was > 100 µM (inactive) each time. In addition, the GI50 in the assay with NCI-H23 is > 100 µM (inactive).
For the molecule `ClC1(Cl)C2CCOC21n1cnc2ccccc21` (centres undefined), the GI50 in the assay with SNB-19, with 786-0, with SF-268, with SNB-75, with EKVX and in the assay on RXF 393 was > 100 µM (inactive) throughout. Also, the GI50 is > 100 µM (inactive) with RPMI-8226; > 100 µM (inactive) in the assay with IGROV-1; > 100 µM (inactive) with SF-539; > 100 µM (inactive) with Malme-3M; 98.2 µM (inactive) in the assay on LOX IMVI; > 100 µM (inactive) in the assay with SK-MEL-28. Also, the GI50 is > 100 µM (inactive) in the assay with HCT-116; > 100 µM (inactive) with SK-MEL-5; > 100 µM (inactive) in the assay on SN12C; > 100 µM (inactive) in the assay with HL-60; 92.9 µM (inactive) in the assay with UACC-62; > 100 µM (inactive) in the assay on NCI/ADR-RES. The GI50 in the assay on NCI-H23 was 45 µM (inactive).
In the case of `S=c1sscc1N1CCSc2ssc(=S)c21`, the GI50 in the assay on SNB-19 is 18.8 µM (inactive); in the assay on 786-0, 33.7 µM (inactive); with SF-268 it was 35.9 µM (inactive); in the assay with SNB-75, 14.5 µM (inactive); with EKVX, 16.6 µM (inactive); with RXF 393, 47.3 µM (inactive). In addition, the GI50 in the assay with RPMI-8226 is > 100 µM (inactive); with IGROV-1, 21.1 µM (inactive); with SF-539 it was 42.3 µM (inactive); in the assay on Malme-3M it was > 100 µM (inactive); in the assay with LOX IMVI, 28.4 µM (inactive); in the assay with SK-MEL-28 it was > 100 µM (inactive). Further, the GI50 was 87.1 µM (inactive) in the assay on HCT-116; > 100 µM (inactive) with SK-MEL-5; 25.8 µM (inactive) with SN12C; > 100 µM (inactive) in the assay with HL-60; 67.1 µM (inactive) in the assay on UACC-62; 28.4 µM (inactive) in the assay on NCI/ADR-RES. Further, the GI50 in the assay with NCI-H23 is 19.9 µM (inactive).
For the molecule `CC(=O)Oc1c(-c2ccccc2)oc2ccccc12`, the GI50 in the assay on SNB-19 was 1.53 µM (inactive); in the assay on 786-0, 4.02 µM (inactive); in the assay on SF-268, 2.28 µM (inactive); in the assay on SNB-75 it was 1.57 µM (inactive); in the assay with EKVX, 2.06 µM (inactive); in the assay on RXF 393, 1.42 µM (inactive). The GI50 in the assay with RPMI-8226 is 0.813 µM (active); with IGROV-1, 2.08 µM (inactive); with SF-539 it was 1.36 µM (inactive); with Malme-3M it was 2.83 µM (inactive); with LOX IMVI, 0.398 µM (active); with SK-MEL-28, 2.38 µM (inactive). In addition, the GI50 with HCT-116 is 1.66 µM (inactive); in the assay on SK-MEL-5, 1.35 µM (inactive); in the assay on SN12C it was 2.19 µM (inactive); in the assay on HL-60, 1.12 µM (inactive); in the assay with UACC-62 it was 3.13 µM (inactive); in the assay with NCI/ADR-RES it was 2.66 µM (inactive). For the same molecule, in the assay with NCI-H23, the GI50 is 1.77 µM (inactive).
In the case of `O=C1C=CC(=O)c2c1ccc1c3ccccc3n(CCCCCn3c4ccccc4c4ccc5c(c43)C(=O)C=CC5=O)c21`, the GI50 with SNB-19 is 41.2 µM (inactive); in the assay on 786-0, 6.87 µM (inactive); in the assay on SF-268, 15.7 µM (inactive); in the assay with SNB-75, 14.9 µM (inactive); in the assay on EKVX, 33.3 µM (inactive); in the assay with RXF 393, 5.68 µM (inactive). The GI50 is 4.14 µM (inactive) in the assay on RPMI-8226; 14.7 µM (inactive) in the assay with IGROV-1; 16.1 µM (inactive) in the assay with SF-539; 16.7 µM (inactive) in the assay with Malme-3M; 16 µM (inactive) in the assay with LOX IMVI; 16.4 µM (inactive) in the assay on SK-MEL-28. Besides, the GI50 in the assay with HCT-116 was 12.8 µM (inactive); in the assay on SK-MEL-5, 32.4 µM (inactive); in the assay with SN12C, 18.4 µM (inactive); in the assay with HL-60, 0.875 µM (active); in the assay on UACC-62, 25.7 µM (inactive); with NCI/ADR-RES, 25.6 µM (inactive). Further, the GI50 in the assay on NCI-H23 was 16 µM (inactive).
Consider `O=C1C(=C(C(F)(F)Cl)C(F)(F)Cl)C2CCC1C2` (centres undefined), for which the GI50 in the assay with SNB-19 is > 10 µM (inactive); with 786-0, 1.87 µM (inactive); in the assay with SF-268 it was 2.41 µM (inactive); with SNB-75, 4.3 µM (inactive); in the assay on EKVX it was > 10 µM (inactive); with RXF 393 it was 1.63 µM (inactive). The GI50 in the assay with RPMI-8226 was 0.849 µM (active); with IGROV-1, 1.89 µM (inactive); in the assay on SF-539, 3.29 µM (inactive); in the assay on Malme-3M, 1.55 µM (inactive); with LOX IMVI, 1.33 µM (inactive); in the assay with SK-MEL-28, 1.93 µM (inactive). The GI50 with HCT-116 was 1.9 µM (inactive); in the assay with SK-MEL-5 it was 1.67 µM (inactive); in the assay with SN12C, 1.97 µM (inactive); in the assay on HL-60 it was 0.238 µM (active); in the assay on UACC-62, 2.01 µM (inactive); with NCI/ADR-RES, 2.15 µM (inactive). Also, the GI50 with NCI-H23 is 1.96 µM (inactive).
Take `C=C1C(=O)OC2CC1C(O)C/C(C)=C/CC/C(C)=C/C(O)CC2C` (centres undefined): the GI50 is 5.47 µM (inactive) in the assay on SNB-19; 1.53 µM (inactive) with 786-0; 2.79 µM (inactive) in the assay on SF-268; 3.43 µM (inactive) in the assay with SNB-75; 1.87 µM (inactive) with EKVX; 1.01 µM (active) in the assay on RXF 393. Besides, the GI50 in the assay with RPMI-8226 is 1.32 µM (inactive); in the assay on IGROV-1 it was 2.75 µM (inactive); in the assay on SF-539, 2.35 µM (inactive); with Malme-3M, 2.37 µM (inactive); in the assay with LOX IMVI it was 1.29 µM (inactive); in the assay with SK-MEL-28 it was 4.9 µM (inactive). Further, the GI50 in the assay on HCT-116 is 1.45 µM (inactive); in the assay with SK-MEL-5, 4.19 µM (inactive); in the assay on SN12C, 1.85 µM (inactive); in the assay on HL-60 it was 0.262 µM (active); in the assay with UACC-62, 2.34 µM (inactive); in the assay on NCI/ADR-RES, 2 µM (inactive). The GI50 with NCI-H23 was 2.44 µM (inactive).
Take `Cc1cccc(C)c1/N=N/c1ccc(O)c(CN(C)C)c1`: the GI50 is > 100 µM (inactive) in the assay with SNB-19; 43.9 µM (inactive) in the assay on 786-0; 47 µM (inactive) in the assay on SF-268; 75.3 µM (inactive) in the assay on SNB-75; > 100 µM (inactive) in the assay on EKVX; 0.716 µM (active) in the assay with RXF 393. For the same molecule, the GI50 in the assay with RPMI-8226 was 29 µM (inactive); with IGROV-1, 26.3 µM (inactive); in the assay with SF-539, 79.4 µM (inactive); with Malme-3M, 20.5 µM (inactive); with LOX IMVI it was 36.5 µM (inactive); in the assay with SK-MEL-28, 20.7 µM (inactive). Moreover, the GI50 was 68.7 µM (inactive) with HCT-116; 11.7 µM (inactive) in the assay with SK-MEL-5; > 100 µM (inactive) in the assay on SN12C; 26.9 µM (inactive) in the assay with HL-60; 26.7 µM (inactive) in the assay with UACC-62; 41.2 µM (inactive) in the assay on NCI/ADR-RES. In addition, the GI50 with NCI-H23 was 60.1 µM (inactive).
On to `CC(=O)Oc1ccc(-c2nnc(-c3ccc(OC(C)=O)cc3)nn2)cc1`, for which the GI50 is > 100 µM (inactive) in the assay on SNB-19; > 100 µM (inactive) in the assay with 786-0; > 100 µM (inactive) in the assay on SF-268; > 100 µM (inactive) in the assay with SNB-75; 70.5 µM (inactive) with EKVX; > 100 µM (inactive) in the assay with RXF 393. Further, the GI50 in the assay on RPMI-8226, in the assay with IGROV-1, in the assay on SF-539, in the assay with Malme-3M, in the assay with LOX IMVI and in the assay on SK-MEL-28 was > 100 µM (inactive) each time. For the same molecule, the GI50 is > 100 µM (inactive) in the assay with HCT-116; > 100 µM (inactive) in the assay on SK-MEL-5; > 100 µM (inactive) in the assay with SN12C; 29.8 µM (inactive) in the assay on HL-60; > 100 µM (inactive) in the assay with UACC-62; 38.8 µM (inactive) in the assay with NCI/ADR-RES. Also, the GI50 in the assay with NCI-H23 is > 100 µM (inactive).
Regarding `O=C1CC(c2ccccc2Cl)C2(C(=O)NC(=O)NC2=O)C(c2ccccc2Cl)C1` (centres undefined), the GI50 was > 100 µM (inactive) in the assay with SNB-19; > 100 µM (inactive) in the assay on 786-0; 39.4 µM (inactive) in the assay with SF-268; > 100 µM (inactive) in the assay on SNB-75; 38.6 µM (inactive) with EKVX; 29.5 µM (inactive) in the assay on RXF 393. The GI50 is 68.2 µM (inactive) with RPMI-8226; 0.104 µM (active) in the assay with IGROV-1; 76.2 µM (inactive) in the assay with SF-539; 5.05 µM (inactive) in the assay on Malme-3M; 51.8 µM (inactive) in the assay with LOX IMVI; > 100 µM (inactive) in the assay on SK-MEL-28. The GI50 was > 100 µM (inactive) in the assay with HCT-116; > 100 µM (inactive) in the assay on SK-MEL-5; > 100 µM (inactive) in the assay with SN12C; 80.4 µM (inactive) in the assay with HL-60; 46.9 µM (inactive) in the assay on UACC-62; > 100 µM (inactive) with NCI/ADR-RES. The GI50 in the assay on NCI-H23 is > 100 µM (inactive).
